Like-named read-outs stand apart in the source and are kept apart here. Values belong to the molecule of their own block, whether it stands above or below them.
Tests used:
[1] = biological target: T1, polyamine binding site (ifenprodil binding site at the NMDA receptor/ion channel complex) (Rattus norvegicus, UniProt P35439+Q00960); test: Ifenprodil binding ([3H]-ifenprodil displacement, rat forebrain membranes)
T1 construct: Homogenates of rat forebrain were centrifuged repeatedly; from tissue; host or cells: rat forebrain membranes
Experimental: (§1) Additionally, in the binding experiment this active compound displaces tritiated ifenprodil in the forebrain of rats from its binding site (for method see Schoemaker et al., European J. Pharmacol. 176 (1990), 249-250), which represents a receptor at the N-methyl-D-aspartate (NMDA) receptor/ion channel complex as a subtype of the glutamate receptors.
1. Ifenprodil binding (Schoemaker et al., 1990)
Homogenates of rat forebrain were centrifuged repeatedly. The last membrane […] (10 mg/ml) was used to determine the specific binding in the presence of 1.15 nM [^3H]-ifenprodil in 5 ml of buffer solution at pH 7.4. The unspecific binding was determined in the presence of 100 μM of ifenprodil.

rats [2] = test: Ultrasound vocalization after electric stimulation in rats; type: in vivo, rat; conditions: proof of the anxiolytic action
mice [3] = test: Spontaneous behaviour of mice (Irwin); type: in vivo, mouse
rats [4] = test: Inhibition of apomorphine-induced stereotypical behaviour in rats; type: in vivo, rat; conditions: for ED50: Rattus norvegicus, sc, read-out: Inhibition of apomorphine-induced stereotypical behaviour in rats 50% inhibition/ED50 s.c. at:
Text: as §1
2. Inhibition of apomorphine-induced stereotypical behaviour in rats (Puech et al., 1978):
Stereotypical behaviour (unmotivated sniffling, licking, chewing, rhythmic movements with the forepaws) was induced by administration of 0.5 mg/kg s.c. of apomorphine. The intensity of the ensuing stereotypical behaviour was assessed every 5 minutes for each rat for a period of 30 minutes using a rating system (0-3). The total score was used as a measure of the occurence of the stereotypical behaviour.

rats [5] = test: Catalepsy induction in rats; type: in vivo, rat
Experimental: as §1
3. Catalepsy induction in rats (Stanley and Glick, 1976):
The occurrence of catalepsy in rats was measured by placing a hindpaw on a 3 cm high block and scoring every 5 minutes for a period of 30 minutes the time for which the rat stayed in this unnatural position using a rating system (score 0-3). The total score was used as a measure of the intensity of the catalepsy.

mice [6] = test: Apomorphine-induced climbing behaviour in mice; type: in vivo, mouse
rats [7] = test: Spontaneous behaviour of rats (Irwin); type: in vivo, rat
rats [8] = test: Conditioned avoiding reaction in rats; type: in vivo, rat
[9] = rat forebrain homogenate, 1.15 nM [3H]-ifenprodil, pH 7.4, methanesulfonate salts, read-out: Ifenprodil binding in vitro 50% displacement/IC50 at:
[10] = apomorphine 0.5 mg/kg s.c., methanesulfonate salts

T1 sequence (Q00960 27-1482, other chains not shown): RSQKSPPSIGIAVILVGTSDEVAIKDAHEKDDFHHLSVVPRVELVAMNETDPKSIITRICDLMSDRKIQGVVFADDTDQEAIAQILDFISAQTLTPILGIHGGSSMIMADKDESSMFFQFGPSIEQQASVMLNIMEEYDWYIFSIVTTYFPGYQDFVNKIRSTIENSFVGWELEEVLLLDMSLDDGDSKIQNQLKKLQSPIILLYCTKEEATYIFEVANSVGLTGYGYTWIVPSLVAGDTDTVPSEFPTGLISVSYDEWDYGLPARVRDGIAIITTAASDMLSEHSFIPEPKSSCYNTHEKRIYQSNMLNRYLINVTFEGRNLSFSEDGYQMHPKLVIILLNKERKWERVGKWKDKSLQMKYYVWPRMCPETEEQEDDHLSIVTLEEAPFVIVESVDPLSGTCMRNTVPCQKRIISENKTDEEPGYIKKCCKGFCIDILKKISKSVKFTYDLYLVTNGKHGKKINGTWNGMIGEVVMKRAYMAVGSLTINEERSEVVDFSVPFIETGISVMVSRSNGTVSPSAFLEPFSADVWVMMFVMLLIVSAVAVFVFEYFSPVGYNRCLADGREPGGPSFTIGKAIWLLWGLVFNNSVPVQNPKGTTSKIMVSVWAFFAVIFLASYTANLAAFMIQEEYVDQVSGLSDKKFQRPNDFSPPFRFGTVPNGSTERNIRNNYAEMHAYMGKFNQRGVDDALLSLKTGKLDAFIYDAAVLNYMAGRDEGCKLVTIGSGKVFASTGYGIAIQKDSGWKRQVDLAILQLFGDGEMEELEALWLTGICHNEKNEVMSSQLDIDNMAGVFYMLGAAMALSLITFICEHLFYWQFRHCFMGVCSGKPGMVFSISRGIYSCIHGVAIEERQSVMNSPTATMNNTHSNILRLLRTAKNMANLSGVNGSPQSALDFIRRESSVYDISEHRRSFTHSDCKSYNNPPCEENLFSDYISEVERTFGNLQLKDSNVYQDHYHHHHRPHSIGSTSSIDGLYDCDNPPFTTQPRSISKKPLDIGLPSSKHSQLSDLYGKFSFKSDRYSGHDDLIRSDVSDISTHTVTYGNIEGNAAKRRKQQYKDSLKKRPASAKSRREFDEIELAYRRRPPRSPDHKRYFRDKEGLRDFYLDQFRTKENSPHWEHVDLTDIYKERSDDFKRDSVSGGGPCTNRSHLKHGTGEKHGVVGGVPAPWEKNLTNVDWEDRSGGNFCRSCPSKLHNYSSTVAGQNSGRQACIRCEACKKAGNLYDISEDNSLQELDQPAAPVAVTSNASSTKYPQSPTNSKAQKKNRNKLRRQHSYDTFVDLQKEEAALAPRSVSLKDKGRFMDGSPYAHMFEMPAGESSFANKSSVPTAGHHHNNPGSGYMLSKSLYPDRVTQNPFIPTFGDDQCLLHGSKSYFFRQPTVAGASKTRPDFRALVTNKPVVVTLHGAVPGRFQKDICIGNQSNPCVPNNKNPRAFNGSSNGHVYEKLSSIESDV

SMILES: O=C1OC(CN2CCC(Cc3ccc(F)cc3)CC2)CN1c1ccc(O)cc1 (stereo not shown) [formula I, 5-[4-(4-fluorobenzyl)piperidin-1-ylmethyl]-3-(4-hydroxy-phenyl) oxazolidin-2-one]
displacement of tritiated ifenprodil from its binding site ([1]; forebrain of rats): displaces
ultrasound vocalization after electric stimulation in rats (rats [2]): inhibits
effect on the spontaneous behaviour of mice (mice [3]): depressive effect
apomorphine-induced stereotypical behaviour in rats (in words) (rats [4]): inhibits
occurrence of catalepsy (in words) (rats [5]; rat, in vivo): without the occurrence of catalepsy
apomorphine-induced climbing behaviour in mice (mice [6]): inhibits
effect on the spontaneous behaviour of rats (rats [7]): depressive effect
conditioned avoiding reaction in rats (rats [8]): inhibits

SMILES: Cc1ccc(N2C[C@H](CN3CCC(Cc4ccc(F)cc4)CC3)OC2=O)cc1 [R = CH3, reference compound]
IC50 [1, 9]: > 1000 nM
ED50 (rats [4]; [10]): > 10 mg/kg

SMILES: COc1ccc(N2C[C@H](CN3CCC(Cc4ccc(F)cc4)CC3)OC2=O)cc1 [R = OCH3, (5S)-(−)-5-[4-(4-fluorobenzyl)-1-piperidinylmethyl]-3-(4-methoxyphenyl)-oxazolidin-2-one, reference compound]
IC50 [1, 9]: > 1000 nM
ED50 (rats [4]; [10]): > 10 mg/kg

Further lines, with some results ahead:

IC50 [1, 9]: > 1000 nM
SMILES: O=C1O[C@@H](CN2CCC(Cc3ccc(F)cc3)CC2)CN1c1ccc(F)cc1 [R = F, reference compound]
ED50 (rats [4]; [10]): > 10 mg/kg

IC50 ([1]; in vitro, read-out: IC50 for the polyamine binding site): 10 nM
IC50 [1, 9]: 10 nM
SMILES: O=C1O[C@@H](CN2CCC(Cc3ccc(F)cc3)CC2)CN1c1ccc(O)cc1 [R = OH, (5S)-(−)-5-[4-(4-fluorobenzyl)-1-piperidinylmethyl]-3-(4-hydroxyphenyl)oxazolidin-2-one]
Inhibition of apomorphine-induced stereotypical behaviour in rats 50% inhibition/ED50 s.c. at: (rats [4]; s.c., apomorphine 0.5 mg/kg s.c., methanesulfonate salts): 2.8 mg/kg
Catalepsy induction Rat (rats [5]; 30 mg/kg s.c., rat, methanesulfonate salt): 0%
Catalepsy ED50 (rats [5]; in vivo animal models): > 30 mg/kg
